Assay [1] addresses T1, human V1a receptor (Homo sapiens, UniProt P37288).
T1 construct: expressed in transfected cells; host or cells: CHO K1 (ATCC), constitutively expressing modified aequorin
Briefly: Cellular in vitro assay for determining the vasopressin receptor activity (aequorin luminescence, recombinant CHO cells), human V1a. It is filed as cell-based. As to conditions: CHO cells expressing aequorin, transfected with human V1a receptor; agonist [Arg8]-vasopressin; read-out: IC50 hV1a. An excerpt: (§1) B-1. Cellular In Vitro Assay for Determining the Vasopressin Receptor Activity
(§2) The identification of agonists and antagonists of the V1a and V2 vasopressin receptors from humans and rats and also the quantification of the activity of the substances described here takes place using recombinant cell lines. These cells derive originally from a hamster's ovary epithelial cell (Chinese Hamster Ovary, CHO K1, ATCC: American Type Culture Collection, Manassas, Va. 20108, USA). The test cell lines constitutively express a modified form of the calcium-sensitive photoprotein aequorin, which, after reconstitution with the cofactor coelenterazine, emits light when there are increases in the free calcium concentration (Rizzuto R., Simpson A. W., Brini M., Pozzan T.; Nature 358 (1992) 325-327). In addition, the cells are stably transfected with the human or rat V1a or V2 receptors. In the case of the Gs-coupling V2 receptors, the cells are stably transfected with a further gene, which codes for the promiscuous Gα16 protein (Amatruda T. T., Steele D. A., Slepak V. Z., Simon M A., Proc. Na. Acad. Sci. USA 88 (1991), 5587-5591), either independently or as a fusion gene. The resulting vasopressin receptor test cells react to stimulation of the recombinantly expressed vasopressin receptors by intracellular release of calcium ions, which can be quantified by the resulting aequorin luminescence using a suitable luminometer (Milligan G., Marshall F., Rees S., Trends in Pharmaco. Sci. 17 (1996) 235-237).
(§3) On the day before the assay, the cells are plated out in culture medium (DMEM, 10% FCS, 2 mM glutamine, 10 mM HEPES) in 384-well microtiter plates and kept in a cell incubator (96% atmospheric humidity, 5% v/v carbon dioxide, 37° C.). On the day of the assay, the culture medium is replaced by a Tyrode solution (140 mM sodium chloride, 5 mM potassium chloride, 1 mM magnesium chloride, 2 mM calcium chloride, 20 mM glucose, 20 mM HEPES), which additionally contains the cofactor coelenterazine (50 μM), and the microtiter plate is then incubated for a further 3-4 hours. The test substances in various concentrations are placed for 10 to 20 minutes in the wells of the microtiter plate before the agonist [Arg8]-vasopressin is added, and the resulting light signal is measured immediately in the luminometer. The IC50 values are calculated using the GraphPad PRISM computer program (Version 3.02).
(§4) Table A below lists representative IC50 values for the compounds according to the invention transfected with the human V1a or V2 receptor: […]

The target of assay [2] is T2, human V2 receptor (Homo sapiens, UniProt P30518).
T2 construct: expressed in transfected cells; host or cells: CHO K1 (ATCC), constitutively expressing modified aequorin, co-transfected with promiscuous G-alpha-16
In words: Cellular in vitro assay for determining the vasopressin receptor activity (aequorin luminescence, recombinant CHO cells), human V2. Format: cell-based. As to conditions: CHO cells expressing aequorin and Gα16, transfected with human V2 receptor; agonist [Arg8]-vasopressin; read-out: IC50 hV2.
Excerpt: as §1, §2, §3, §4

As usually defined, the IC50 is the concentration that gives 50% inhibition.

Structures are written as SMILES.

T2 sequence (P30518 whole entry): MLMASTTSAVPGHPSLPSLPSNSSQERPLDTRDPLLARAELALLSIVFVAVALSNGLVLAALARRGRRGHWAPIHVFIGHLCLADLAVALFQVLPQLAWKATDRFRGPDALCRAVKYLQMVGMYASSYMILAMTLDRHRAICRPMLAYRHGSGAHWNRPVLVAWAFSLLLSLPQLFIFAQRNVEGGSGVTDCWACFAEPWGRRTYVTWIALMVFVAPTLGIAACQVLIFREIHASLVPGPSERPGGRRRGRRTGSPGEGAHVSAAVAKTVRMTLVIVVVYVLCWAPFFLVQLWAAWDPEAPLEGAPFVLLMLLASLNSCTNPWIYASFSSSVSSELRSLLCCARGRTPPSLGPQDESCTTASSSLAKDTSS
T1 sequence (P37288 whole entry): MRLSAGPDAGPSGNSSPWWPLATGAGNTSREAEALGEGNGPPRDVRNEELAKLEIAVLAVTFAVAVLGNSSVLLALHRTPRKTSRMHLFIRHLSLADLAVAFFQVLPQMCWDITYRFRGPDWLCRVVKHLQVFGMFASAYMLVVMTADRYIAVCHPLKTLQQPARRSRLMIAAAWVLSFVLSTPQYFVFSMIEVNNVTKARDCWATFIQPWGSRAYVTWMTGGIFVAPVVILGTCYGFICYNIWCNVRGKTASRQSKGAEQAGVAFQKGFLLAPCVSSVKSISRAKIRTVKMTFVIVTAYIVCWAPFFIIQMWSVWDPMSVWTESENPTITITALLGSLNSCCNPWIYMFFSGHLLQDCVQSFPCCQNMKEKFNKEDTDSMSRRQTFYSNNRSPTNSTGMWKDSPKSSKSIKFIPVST

Take `CCOC(=O)C1(NC(=O)C(NC(=O)Cn2nc(-c3ccc(Cl)cc3)n(C[C@H](O)C(F)(F)F)c2=O)c2cccc(C(F)(F)F)c2)CC1` (stereo partly drawn) [Example 1, Ethyl 1-({[({3-(4-chlorophenyl)-5-oxo-4-[(2S)-3,3,3-trifluoro-2-hydroxypropyl]-4,5-dihydro-1H-1,2,4-triazol-1-yl}acetyl)amino][3-(trifluoromethyl)phenyl]acetyl}amino)cyclopropanecarboxylate]: the IC50 in assay [1] was 9.2 nM; in assay [2], 58 nM.

In the case of `O=C(O)CCNC(=O)C(NC(=O)Cn1nc(-c2ccc(Cl)cc2)n(C[C@H](O)C(F)(F)F)c1=O)c1cccc(C(F)(F)F)c1` (stereo partly drawn) [Example 14, N-{[({3-(4-Chlorophenyl)-5-oxo-4-[(2S)-3,3,3-trifluoro-2-hydroxypropyl]-4,5-dihydro-1H-1,2,4-triazol-1-yl}acetyl)amino][3-(trifluoromethyl)phenyl]acetyl}-beta-alanine], the IC50 in assay [1] is 53 nM; in assay [2], 9 nM.

Consider `C[C@](NC(=O)Cn1nc(-c2ccc(Cl)cc2)n(C[C@H](O)C(F)(F)F)c1=O)(C(=O)NCCC(N)=O)c1cccc(C(F)(F)F)c1` [Example 19, N^3-{(2R)-2-[({3-(4-Chlorophenyl)-5-oxo-4-[(2S)-3,3,3-trifluoro-2-hydroxypropyl]-4,5-dihydro-1H-1,2,4-triazol-1-yl}acetyl)amino]-2-[3-(trifluoromethyl)phenyl]propanoyl}-beta-alaninamide], for which the half-inhibitory concentration (IC50) is 0.6 nM in assay [1] and 1.1 nM in assay [2].

In the case of `COC(=O)C(C)(C)NC(=O)[C@](C)(NC(=O)Cn1nc(-c2ccc(Cl)cc2)n(C[C@H](O)C(F)(F)F)c1=O)c1cccc(C(F)(F)F)c1` [Example 20, Methyl N-{(2R)-2-[({3-(4-chlorophenyl)-5-oxo-4-[(2S)-3,3,3-trifluoro-2-hydroxypropyl]-4,5-dihydro-1H-1,2,4-triazol-1-yl}acetyl)amino]-2-[3-(trifluoromethyl)phenyl]propanoyl}-2-methylalaninate], the concentration for half-maximal inhibition (IC50) stood at 2.4 nM in assay [1] and 4.5 nM in assay [2].

For the molecule `CC(C)(NC(=O)[C@](C)(NC(=O)Cn1nc(-c2ccc(Cl)cc2)n(C[C@H](O)C(F)(F)F)c1=O)c1cccc(C(F)(F)F)c1)C(N)=O` [Example 22, N^2-{(2R)-2-[({3-(4-Chlorophenyl)-5-oxo-4-[(2S)-3,3,3-trifluoro-2-hydroxypropyl]-4,5-dihydro-1H-1,2,4-triazol-1-yl}acetyl)amino]-2-[3-(trifluoromethyl)phenyl}propanoyl]-2-methylalaninamide], the concentration for half-maximal inhibition (IC50) in assay [1] worked out at 1.2 nM; in assay [2], 2.7 nM.

As for `COC(=O)C(C)(C)NC(=O)C[C@H](NC(=O)Cn1nc(-c2ccc(Cl)cc2)n(C[C@H](O)C(F)(F)F)c1=O)c1cccc(C(F)(F)F)c1` [Example 38, Methyl N-{(3S)-3-[({3-(4-chlorophenyl)-5-oxo-4-[(2S)-3,3,3-trifluoro-2-hydroxypropyl]-4,5-dihydro-1H-1,2,4-triazol-1-yl}acetyl)amino]-3-[3-(trifluoromethyl)phenyl]propanoyl}-2-methylalaninate], the IC50 worked out at 32.8 nM in assay [1] and 38.6 nM in assay [2].

For `CC(C)(NC(=O)C[C@H](NC(=O)Cn1nc(-c2ccc(Cl)cc2)n(C[C@H](O)C(F)(F)F)c1=O)c1cccc(C(F)(F)F)c1)C(=O)O` [Example 39, N-{(3S)-3-[({3-(4-Chlorophenyl)-5-oxo-4-[(2S)-3,3,3-trifluoro-2-hydroxypropyl]-4,5-dihydro-1H-1,2,4-triazol-1-yl}acetyl)amino]-3-[3-(trifluoromethyl)phenyl]propanoyl}-2-methylalanine], the results for the IC50 in assay [1] and in assay [2] were 4.9 nM and 0.8 nM, respectively.

Take `CC(C)(NC(=O)C[C@H](NC(=O)Cn1nc(-c2ccc(Cl)cc2)n(C[C@H](O)C(F)(F)F)c1=O)c1cccc(C(F)(F)F)c1)C(N)=O` [Example 40, N^2-{(3S)-3-[({3-(4-Chlorophenyl)-5-oxo-4-[(2S)-3,3,3-trifluoro-2-hydroxypropyl]-4,5-dihydro-1H-1,2,4-triazol-1-yl}acetyl)amino]-3-[3-(trifluoromethyl)phenyl]propanoyl}-2-methylalaninamide]: the IC50 in assay [1] stood at 11.1 nM; in assay [2], 8.1 nM.

In the case of `O=C(Cn1nc(-c2ccc(Cl)cc2)n(C[C@H](O)C(F)(F)F)c1=O)NC(C(=O)NCCO)c1cccc(C(F)(F)F)c1` (stereo partly drawn) [Example 49, 2-[({3-(4-Chlorophenyl)-5-oxo-4-[(2S)-3,3,3-trifluoro-2-hydroxypropyl]-4,5-dihydro-1H-1,2,4-triazol-1-yl}acetyl)amino]-N-(2-hydroxyethyl)-2-[3-(trifluoromethyl)phenyl]acetamide], the IC50 in assay [1] was determined as 2.2 nM; in assay [2], 7.6 nM.

As to `O=C(C[C@H](NC(=O)Cn1nc(-c2ccc(Cl)cc2)n(C[C@H](O)C(F)(F)F)c1=O)c1ccccc1C(F)(F)F)NCCO` [Example 53, (3S)-3-[({3-(4-Chlorophenyl)-5-oxo-4-[(2S)-3,3,3-trifluoro-2-hydroxypropyl]-4,5-dihydro-1H-1,2,4-triazol-1-yl}acetyl)amino]-N-(2-hydroxyethyl)-3-[2-(trifluoromethyl)phenyl]propanamide], the values for the IC50 in assay [1] and in assay [2] were 0.9 nM and 2.6 nM, respectively.

Turning to `O=C(C[C@H](NC(=O)Cn1nc(-c2ccc(Cl)cc2)n(C2CC2)c1=O)c1ccccc1C(F)(F)F)NCCO` [Example 55, (3S)-3-({[3-(4-Chlorophenyl)-4-cyclopropyl-5-oxo-4,5-dihydro-1H-1,2,4-triazol-1-yl]acetyl}-amino)-N-(2-hydroxyethyl)-3-[2-(trifluoromethyl)phenyl]propanamide], the IC50 is 6 nM in assay [1] and 569 nM in assay [2].

Turning to `COCCNC(=O)C(NC(=O)Cn1nc(-c2ccc(Cl)cc2)n(C[C@H](O)C(F)(F)F)c1=O)c1ccccc1C(F)(F)F` (stereo partly drawn) [Example 56, 2-[({3-(4-Chlorophenyl)-5-oxo-4-[(2S)-3,3,3-trifluoro-2-hydroxypropyl]-4,5-dihydro-1H-1,2,4-triazol-1-yl}acetyl)amino]-N-(2-methoxyethyl)-2-[2-(trifluoromethyl)phenyl]acetamide], the figures for the IC50 in assay [1] and in assay [2] were 3 nM and 144 nM, respectively.

In the case of `COCCNC(=O)C[C@H](NC(=O)Cn1nc(-c2ccc(Cl)cc2)n(C[C@H](O)C(F)(F)F)c1=O)c1cccc(C(F)(F)F)c1` [Example 57, (3S)-3-[({3-(4-Chlorophenyl)-5-oxo-4-[(2S)-3,3,3-trifluoro-2-hydroxypropyl]-4,5-dihydro-1H-1,2,4-triazol-1-yl}acetyl)amino]-N-(2-methoxyethyl)-3-[3-(trifluoromethyl)phenyl]propanamide], the IC50 in assay [1] amounted to 14.5 nM; in assay [2] it was 7.4 nM.

Consider `COCCNC(=O)C[C@H](NC(=O)Cn1nc(-c2ccc(Cl)cc2)n(C[C@H](O)C(F)(F)F)c1=O)c1ccccc1C(F)(F)F` [Example 58, (3S)-3-[({3-(4-Chlorophenyl)-5-oxo-4-[(2S)-3,3,3-trifluoro-2-hydroxypropyl]-4,5-dihydro-1H-1,2,4-triazol-1-yl}acetyl)amino]-N-(2-methoxyethyl)-3-[2-(trifluoromethyl)phenyl]propanamide], for which the IC50 was found to be 3.5 nM in assay [1] and 136 nM in assay [2].

Values taken from US9034855B2, “Substituted phenylacetate and phenylpropane amides and use thereof” (Bayer Intellectual Property GmbH, priority 2010, dated 2015).
